The numbers were not newly measured in patent publication US6982284B1, “Compositions and methods for modification of skin lipid content” (Applied Genetics Incorporated Dermatics, priority 1999, dated 2006), which cites them from elsewhere.

The series deals with living skin equivalents.

In the case of `O=C1O[C@H]([C@@H](O)CO)C(O)=C1O` [Vitamin C], under “50 ug/ml”, the “glucosylceramides and ceramides, most notably ceramides 6 and 7” value is on record as “increases”.
In the case of Vitamin E, the “effect on lipid composition” value is “no effect”.
